From patent publication US9676714B2, “Sulfonylindole derivatives and method for preparing the same” (Daewoong Pharmaceutical Co., Ltd., priority 2013, dated 2017)
pIC50: −log10 of the molar value. Where a name gives a salt, the structure may show the parent alone.

Columns and labels:
[1] = target: T1, proton pump (H+/K+-ATPase) (Sus scrofa, UniProt P19156); assay: Measurement of inhibitory effects on proton pump (H+/K+-ATPase) activities; format: biochemical; details: hog gastric vesicles, K+-specific H+/K+-ATPase activity, Tris-HCl buffer pH 7.4, 37° C. for 40 minutes, malachite green Pi readout
T1 construct: Gastric vesicles were prepared from hog stomach via centrifugal separation; from tissue; host or cells: hog stomach (gastric vesicles, method of Rabon et al. 1988)
T1 sequence (P19156 whole entry): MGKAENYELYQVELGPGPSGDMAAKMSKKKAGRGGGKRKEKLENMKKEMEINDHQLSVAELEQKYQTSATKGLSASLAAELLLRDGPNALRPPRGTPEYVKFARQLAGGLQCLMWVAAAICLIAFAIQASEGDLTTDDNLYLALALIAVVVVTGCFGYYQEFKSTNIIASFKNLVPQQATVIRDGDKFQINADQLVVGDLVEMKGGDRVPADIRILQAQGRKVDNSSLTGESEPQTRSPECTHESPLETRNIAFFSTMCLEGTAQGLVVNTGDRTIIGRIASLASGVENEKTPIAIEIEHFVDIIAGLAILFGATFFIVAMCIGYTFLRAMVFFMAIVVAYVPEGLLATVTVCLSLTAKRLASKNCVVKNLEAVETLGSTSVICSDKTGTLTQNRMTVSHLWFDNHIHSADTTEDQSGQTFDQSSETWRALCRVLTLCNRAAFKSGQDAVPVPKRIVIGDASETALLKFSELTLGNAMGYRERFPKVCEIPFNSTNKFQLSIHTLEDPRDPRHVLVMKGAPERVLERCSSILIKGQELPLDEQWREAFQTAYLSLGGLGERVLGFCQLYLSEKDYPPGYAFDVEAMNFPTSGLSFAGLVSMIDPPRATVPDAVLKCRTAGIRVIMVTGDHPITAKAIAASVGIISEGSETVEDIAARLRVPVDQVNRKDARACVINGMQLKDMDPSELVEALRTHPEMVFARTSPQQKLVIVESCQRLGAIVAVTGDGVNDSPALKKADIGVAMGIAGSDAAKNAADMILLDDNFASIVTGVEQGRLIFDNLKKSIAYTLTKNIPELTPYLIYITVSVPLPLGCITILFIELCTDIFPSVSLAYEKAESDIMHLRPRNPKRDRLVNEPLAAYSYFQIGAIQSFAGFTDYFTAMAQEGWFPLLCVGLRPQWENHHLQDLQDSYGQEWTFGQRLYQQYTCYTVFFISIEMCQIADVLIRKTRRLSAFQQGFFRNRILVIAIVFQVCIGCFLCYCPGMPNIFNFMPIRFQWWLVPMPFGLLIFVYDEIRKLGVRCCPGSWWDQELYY
T1 sequence (P18434 whole entry partner): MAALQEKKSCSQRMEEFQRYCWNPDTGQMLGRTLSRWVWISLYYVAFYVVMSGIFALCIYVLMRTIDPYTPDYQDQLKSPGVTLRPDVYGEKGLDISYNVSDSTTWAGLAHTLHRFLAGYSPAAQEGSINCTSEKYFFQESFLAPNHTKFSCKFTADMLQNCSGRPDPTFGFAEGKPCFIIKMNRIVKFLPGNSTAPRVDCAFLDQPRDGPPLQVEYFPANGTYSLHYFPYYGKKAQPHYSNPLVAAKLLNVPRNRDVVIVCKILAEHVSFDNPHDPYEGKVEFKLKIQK
In short: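 Hog gastric vesicles in 60 mmol/l Tris-HCl pH 7.4 with 0.5% DMSO were treated with compounds at room temperature; reaction was started with 10 μl of 10 mmol/l ATP stock. Released Pi was read at 570 nm, K+-specific activity taken as the ±K+ difference. IC50 from 4-parameter logistic fit.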

[2] = tested on: basal gastric acid secretion; assay: Inhibitory effect on the basal gastric acid secretion in pylorus-ligated rats (Shay's rat model); format: in vivo, Sprague Dawley (SD) rats; details: 5 h, male SD rats, 3 mg/kg/2 ml into the duodenum, five hours after the ligation, total gastric acid secretion vs control group
Description: 3) Inhibitory Effect on the Basal Gastric Acid Secretion in Pylorus-Ligated Rats
Assays for determining inhibitory effect of the compounds of the present invention on the basal gastric acid secretion was performed according to Shay's rat model (Shay, H., et al., 1945, gastroenterology, 5, p. 43-61). Male Sprague Dawley (SD) rats with a body weight in the range of 180˜220 g were divided into test (n=5) and control groups (n=5), and fasted for 18 hours with free access to water. Under isoflurane anesthesia, the abdomens of the rats were incised and then the pylorus was ligated. After the ligation, the control groups were administered with only 10% ethanol, 20% polyethylene glycol (PEG) 400, and 10% aqueous Cremophor solution through the duodenum, and the other groups were administered with test compounds suspended in 10% ethanol, 20% PEG 400, and 10% aqueous Cremophor solution at a concentration of 3 mg/kg/2 ml into the duodenum. Five hours after the ligation, the experimental animals were euthanized and their stomach contents were collected. The thus obtained contents were centrifuged at 4,000×g for 10 minutes, and the supernatant was recovered to obtain gastric juice therefrom. The amount of the gastric juice and its pH were measured. The acidity of the gastric juice was determined by 0.1 N-NaOH volume (ueq/mL) for automatic titration of gastric acid to pH 7.0. The total acid output was obtained by multiplying the gastric acidity by the amount of gastric juice. Inhibition Activity (%) of Test Compounds=(total gastric acid secretion in control group−total gastric acid secretion in groups treated with test compounds)/total gastric acid secretion in control group×100

Row | pIC50 [1] | Compound | inhibition in vivo at 3 mg/kg [2] [%]
1 | 6.10 | CNCc1cn(S(=O)(=O)c2cccnc2)c2cc(Cc3ccc(C)cc3)ccc12 [Example 270, N-methyl-1-(6-(4-methylbenzyl)-1-(pyridin-3-ylsulfonyl)-1H-indol-3-yl)methanamine hydrochloride] | 38
2 | 6.30 | CNCc1cn(S(=O)(=O)c2cccnc2)c2cc(Cc3ccc(C)cc3F)ccc12 [Example 272, 1-(6-(2-fluoro-4-methylbenzyl)-1-(pyridin-3-ylsulfonyl)-1H-indol-3-yl)-N-methylmethanamine hydrochloride] | 41
3 | 6.43 | CNCc1cn(S(=O)(=O)c2cccnc2)c2cc(Cc3ccc(F)cc3Cl)ccc12 [Example 273, 1-(6-(2-chloro-4-fluorobenzyl)-1-(pyridin-3-ylsulfonyl)-1H-indol-3-yl)-N-methylmethanamine hydrochloride] | 32
4 | 6.41 | CNCc1cn(S(=O)(=O)c2cccnc2)c2cc(Cc3ccc(C)c(F)c3F)ccc12 [Example 286, 1-(6-(2,3-difluoro-4-methylbenzyl)-1-(pyridin-3-ylsulfonyl)-1H-indol-3-yl)-N-methylmethanamine hydrochloride] | 35
5 | 5.53 | CNCc1cn(S(=O)(=O)c2cccc(C(F)(F)F)c2)c2cc(N(C)c3ccc(OC)nc3Cl)ccc12 [Example 315, N-(2-chloro-6-methoxypyridin-3-yl)-N-methyl-3-((methylamino)methyl)-1-((3-(trifluoromethyl)phenyl)sulfonyl)-1H-indol-6-amine hydrochloride] | 45
6 | 6.40 | CNCc1cn(S(=O)(=O)c2cccc(F)c2)c2cc(Nc3ccc(Cl)cc3Cl)cnc12 [Example 342, N-(2,4-dichlorophenyl)-1-((3-fluorophenyl)sulfonyl)-3-((methylamino)methyl)-1H-pyrrolo[3,2-b]pyridin-6-amine hydrochloride] | 41
7 | 5.70 | CNCc1cn(S(=O)(=O)c2cccc(F)c2)c2cc(Nc3ccc(OC(F)(F)F)cc3OC)ncc12 [Example 356, 1-((3-fluorophenyl)sulfonyl)-N-(2-methoxy-4-(trifluoromethoxy)phenyl)-3-((methylamino)methyl)-1H-pyrrolo[3,2-c]pyridin-6-amine hydrochloride] | 63

Continued, molecule first:

Row | Compound | pIC50 [1] | inhibition in vivo at 3 mg/kg [2] [%]
8 | CNCc1cn(S(=O)(=O)c2cncc(F)c2)c2cc(Nc3ccc(F)cc3C)ccc12 [Example 212, N-(4-fluoro-2-methylphenyl)-1-((5-fluoropyridin-3-yl)sulfonyl)-3-((methylamino)methyl)-1H-indol-6-amine hydrochloride] | 6.74 | 56
9 | CNCc1cn(S(=O)(=O)c2cncc(F)c2)c2cc(Nc3ccc(F)cc3Cl)ccc12 [Example 213, N-(2-chloro-4-fluorophenyl)-1-((5-fluoropyridin-3-yl)sulfonyl)-3-((methylamino)methyl)-1H-indol-6-amine hydrochloride] | 6.80 | 50
10 | CNCc1cn(S(=O)(=O)c2cncc(F)c2)c2cc(Nc3ccc(OC)cc3OC(F)(F)F)ccc12 [Example 214, 1-((5-fluoropyridin-3-yl)sulfonyl)-N-(4-methoxy-2-(trifluoromethoxy)phenyl)-3-((methylamino)methyl)-1H-indol-6-amine hydrochloride] | 5.77 | 75
11 | CNCc1cn(S(=O)(=O)c2cncc(F)c2)c2cc(Nc3ccc(OC(F)(F)F)cc3OC)ccc12 [Example 216, 1-((5-fluoropyridin-3-yl)sulfonyl)-N-(2-methoxy-4-(trifluoromethoxy)phenyl)-3-((methylamino)methyl)-1H-indol-6-amine hydrochloride] | 5.82 | 69
12 | CNCc1cn(S(=O)(=O)c2cncc(F)c2)c2cc(Nc3ccc(OC)nc3Cl)ccc12 [Example 217, N-(2-chloro-6-methoxypyridin-3-yl)-1-((5-fluoropyridin-311)sulfonyl)-3-((methylamino)methyl)-1H-indol-6-amine hydrochloride] | 6.27 | 44
13 | CNCc1cn(S(=O)(=O)c2cncc(F)c2)c2cc(Nc3ccc(C(F)(F)F)nc3Cl)ccc12 [Example 218, N-(2-chloro-6-(trifluoromethyl)pyridin-3-yl)-1-((5-fluoropyridin-3-yl)sulfonyl)-3-((methylamino)methyl)-1H-indol-6-amine hydrochloride] | 5.53 | 49
14 | CNCc1cn(S(=O)(=O)c2cccc(C)c2)c2cc(Nc3ccc(C)cc3F)ccc12 [Example 226, N-(2-fluoro-4-methylphenyl)-3-((methylamino)methyl)-1-(m-tolylsulfonyl)-1H-indol-6-amine hydrochloride] | 5.94 | 44
15 | CNCc1cn(S(=O)(=O)c2cccnc2)c2cc(Cc3ccc(C)cc3Cl)ccc12 [Example 267, 1-(6-(2-chloro-4-methylbenzyl)-1-(pyridin-3-ylsulfonyl)-1H-indol-3-yl)-N-methylmethanamine hydrochloride] | 6.64 | 44
